These results are taken from patent US8389573B2, “Glycyrrhetinic acid derivatives” (Wellington Laboratories Inc., priority 2006, dated 2013).

For one assay, the system named is AR mRNA. Put plainly: Real-time PCR of AR mRNA in LNCaP cells. It counts as cell-based, human. How it is done: (§1) Real-Time PCR: Total RNA was isolated using the RNeasy Protect Mini kit (QIAGEN, Valencia, Calif.) according to the manufacturer's protocol. RNA was eluted with 30 μl of RNasefree water and stored at −80° C. RNA was reverse transcribed using Superscript II reverse transcriptase (Invitrogen) according to the manufacturer's protocol. cDNA was prepared from the LNCaP cell line using a combination of oligodeoxythymidylic acid and dNTP mix (Applied Biosystems, Foster City, Calif.) and Superscript II (Invitrogen). Each PCR was carried out in triplicate in a 25-μl volume using SYBR Green Master mix (Applied Biosystems) for 15 min at 95° C. for initial denaturing, followed by 40 cycles of 95° C. for 30 s and 60° C. for 1 min in the ABI Prism 7700 sequence detection system (Applied Biosystems). The ABI Dissociation Curves software was used after a brief thermal protocol (95° C. 15 s and 60° C. 20 s, followed by a slow ramp to 95° C.) to control for multiple species in each PCR amplification. The comparative CT method was used for relative quantitation of samples. Values for each gene were normalized to expression levels of TATA-binding protein. Primers were purchased from Integrated DNA Technologies (Coralville, Iowa). The sequences of the primers used for reverse transcription-PCR were as follows: AR forward, 5′-GTA CCC TGG CGG CAT GGT-3′ [SEQ ID NO: 1] and AR reverse, 5′-CCCATTTCGCTTTTGACACA-3′ [SEQ ID NO: 2]; PSA forward, 5′-GCATTGAACCAGAGGAGTTCTTG-3′ [SEQ ID NO: 3] and PSA reverse, 5′-TTG CGC ACA CAC GTC ATT G-3′ [SEQ ID NO: 4]; and TATA-binding protein forward, 5′-TGCACAGGAGCCAAGAGTGAA-3′ [SEQ ID NO: 5] and reverse, 5′-CACATCACAGCTCCCCACCA-3′ [SEQ ID NO: 6].
For orientation: In qPCR the cycle at which signal appears reflects the starting amount.

A further assay deals with PSA mRNA. The experiment in a line: Real-time PCR of PSA mRNA in LNCaP cells. It counts as cell-based, human. To be noted: 12 or 18 hr. How it is done:
as §1

The test system of a further assay is PPARγ. The experiment in a line: PPARγ-GAL4/pGAL4 transfection and luciferase assay in SW480 cells. Format: cell-based. How it is done:
The Gal4 reporter containing 5× Gal4 response elements (pGal4) was kindly provided by Dr. Marty Mayo (University of North Carolina, Chapel Hill, N.C.). Gal4 DBD-PPARγ construct (gPPARγ) was a gift of Dr. Jennifer L. Oberfield (GlaxoSmithKline Research and Development, Research Triangle Park, N.C.). PPRE3-luc construct contains three tandem PPREs with a minimal TATA sequence in pGL2.
Colon Cancer cell lines SW480 and HT29 (1×10^5 cells/well) were plated in 12-well plates in DMEM/Ham's F-12 media supplemented with 2.5% charcoal-stripped FBS. After 16 h, various amounts of DNA [i.e., Gal4Luc (0.4 μg), β-Gal (0.04 μg), Gal4PPAR and PPRE3-Luc (0.04 μg)] were transfected using LipofectAMINE™ reagent (Invitrogen) following the manufacturer's protocol. Five hours after transfection, the transfection mix was replaced with complete media containing either vehicle (DMSO) or the indicated ligand for 20 to 22 h. Cells were then lysed with 100 μl of 1× reporter lysis buffer, and 30 μl of cell extract was used for luciferase and […] assays. A LumiCount™ luminometer (PerkinElmer Life and Analytical Sciences) was used to quantitate luciferase and β-Gal activities, and the luciferase activities were normalized to β-Gal activity. Results are expressed as means±S.E. for at least three replicate determinations for each treatment group

Assay [1] has as its system LNCaP human prostate carcinoma cells. The experiment in a line: Cell proliferation assay in LNCaP cells. Format: cell-based. Conditions: 96 hr, read-out: IC50, inhibition of LNCaP cell growth. The procedure: Cell lines: LNCaP human prostate carcinoma cells were obtained from American Type Culture Collection (Manassas, Va.). Fetal bovine serum was obtained from JRH Biosciences, Lenexa, Kans. LNCaP cells were maintained in RPMI 1640 (Sigma Chemical, St. Louis, Mo.) supplemented with 0.22% sodium bicarbonate, 0.011% sodium pyruvate, 0.45% glucose, 0.24% HEPES, 10% FBS, and 10 mL/L of 100× antibiotic/antimycotic solution (Sigma). Cells were maintained at 37° C. in the presence of 5% CO2.
Cell Proliferation and DNA Fragmentation Assays: LNCaP prostate cancer cells (2×10^4 per well) were added to 12-well plates and allowed to attach for 24 hr. The medium was then changed to DMEM/Ham's F-12 media containing 2.5% charcoal-stripped FBS, and either vehicle (DMSO) or the indicated C-DIMs were added. Fresh medium and indicated compounds were added every 48 hr, and cells were then trypsinized and counted after 2, 4, and 6 days using a Coulter Z1 cell counter (Beckman Coulter, Fullerton, Calif.). Each experiment was done in triplicate, and results are expressed as means±S.E. for each set of three experiments. The DNA fragmentation assay was performed using a BioVision Apoptotic DNA ladder extraction kit (BioVision, Mountain View, Calif.) according to the manufacturer's protocol.

For assay [2], the system named is Sp1, Sp3 and Sp4 protein expression in Panc28 cells. The experiment in a line: Sp protein expression (gels) in Panc28 cells. It counts as cell-based.

SMILES strings stand for the structures. “Also recorded” adds a separate entry of the source.

For the molecule `COC(=O)[C@@]1(C)CC[C@]2(C)CC[C@]3(C)C(=CC(=O)[C@@H]4[C@@]5(C)C=C(C#N)C(=O)C(C)(C)[C@@H]5CC[C@]43C)[C@@H]2C1` [β-CDODA-Me, Methyl 2-cyano-3,11-dioxo-18β-oleana-1,12-dien-30-oate], in the assay on AR mRNA, the “AR mRNA effects in the presence of cycloheximide (10 μg/ml)” value is “did not modulate” and the “AR mRNA levels after cotreatment with T007” value is recorded as “did not affect mRNA levels”. For the same molecule, the “AR mRNA levels” value in the assay on AR mRNA (12 and 18 hr) is on record as “decreases AR mRNA levels”. Moreover, in the assay with PSA mRNA, the “PSA mRNA levels” value is “downregulation of PSA mRNA levels”, the “PSA mRNA response after cotreatment with T007” value is listed as “not inhibited” and the “downregulation of PSA mRNA levels after cotreatment with cycloheximide” value is recorded as “significantly inhibited”. For the same molecule, the “induced luciferase activity after cotreatment with PPARγ antagonist T007” value in the assay on PPARγ (1.0, 2.5, 5.0 β-CDODA-Me or 10, 20, 30 μM β-CDODA, 10 μM T007) is “inhibited”. In the assay with PPARγ (1-5 μM), the “maximal induction of luciferase activity (PPARγ activation)” value is 18 Fold. Moreover, the half-maximal inhibitory concentration (IC50) – broadly, the concentration that gives 50% inhibition – in assay [1] is ~1000 nM. Moreover, in assay [2], the “Sp1, Sp3 and Sp4 protein expression” value is given as “concentration-dependent decrease; also recorded: induces Sp protein degradation”; the VEGF expression result was “parallel decrease”; the “caspase-dependent apoptosis (PARP cleavage)” value is reported as “induction of caspase-dependent apoptosis”; the “effects on Sp protein expression with PPARγ antagonist (T007)” value was “not blocked; also recorded: not reversed”. Moreover, the “effects on Sp protein expression with proteasome inhibitor lactacystin” value in assay [2] is listed as “not blocked; also recorded: only a minimal amount of reversal”.
